Data taken from patent US20090325933A1, “Pyrimidinone Derivatives and Their Use as a Drug” (Ipsen Pharma S.A.S., priority 2006, published 2009).
Like-named read-outs stand apart in the source and are kept apart here.

Molecular target: T1, human CB2 receptors (Homo sapiens, UniProt P34972)
T1 construct: expressed in transfected cells; membrane preparations
Test: Affinity for human CB2 cannabinoid receptors: inhibition of [3H]-CP55940 binding to transfected CHO-K1 cell membranes
Settings: inhibition constant value range, [3H]-CP55940 1 nM, Cheng-Prusoff
Experimental: The affinity of the compounds of the present invention for the different sub-types of cannabinoid receptors was measured according to procedures analogous to those described hereafter for the human CB2 receptor.
Study of the Affinity of the Compounds for the Human CB2 Cannabinoid Receptors:
The affinity of the compounds of the invention for the human CB2 receptors is determined by measuring the inhibition of the binding of [^3H]-CP55940 to transfected CHO-K1 cell membrane preparations.
The CHO-K1 cells expressing the human CB2 receptors in stable fashion are cultured in an RPMI 1640 medium containing 10% foetal calf serum, 2 mM of glutamine, 100 U/ml of penicillin, 0.1 mg/ml of streptomycin and 0.5 mg/ml of G418. The cells are collected with 0.5 mM of EDTA and centrifuged at 500 g for 5 minutes at 4° C. The pellet is re-suspended in phosphate buffered saline medium (PBS) and centrifuged at 500 g for 5 minutes at 4° C. The pellet is re-suspended in a Tris 50 mM buffer medium at pH 7.4 and centrifuged at 500 g for 5 minutes at 4° C. The cells are lysed by sonication and centrifuged at 39,000 g for 10 minutes at 4° C. The pellet is re-suspended in the Tris 50 mM buffer medium at pH 7.4 and centrifuged at 50,000 g for 10 minutes at 4° C. The membranes obtained in this last pellet are stored at −80° C.
Measurement of the competitive inhibition of the binding of the [^3H]-CP55940 to the CB2 receptors is carried out in duplicate using 96-well polypropylene plates. The cell membranes (10 μg of proteins/well) are incubated with the [^3H]-CP55940 (1 nM) for 60 minutes at 25° C. in a Tris-HCl 50 mM buffer medium, pH 7.4, comprising 0.1% bovine serum albumin (BSA), 5 mM of MgCl2, and 50 μg/ml of bacitracin.
The bound [^3H]-CP55940 is separated from the free [^3H]-CP55940 by filtration through GF/C glass fibre filter plates (Unifilter, Packard) pre-impregnated with 0.1% polyethylenimine (P.E.I.), using a Filtermate 196 (Packard). The filters are washed with Tris-HCl 50 mM buffer, pH 7.4 at 0-4° C. and the radioactivity present is determined using a counter (Packard Top Count).
The specific binding is obtained by subtracting the non-specific binding (determined in the presence of 0.1 μM of WIN55212-2 from the total binding). The data are analyzed by computer-assisted non-linear regression (MDL). For each test, a Cheng-Prusoff correction is made in order to convert the IC50 to the inhibition constant, Ki.
where [L] is the concentration of the radioligand used in the test and Kd is the radioligand equilibrium dissociation constant.

T1 sequence (P34972 whole entry): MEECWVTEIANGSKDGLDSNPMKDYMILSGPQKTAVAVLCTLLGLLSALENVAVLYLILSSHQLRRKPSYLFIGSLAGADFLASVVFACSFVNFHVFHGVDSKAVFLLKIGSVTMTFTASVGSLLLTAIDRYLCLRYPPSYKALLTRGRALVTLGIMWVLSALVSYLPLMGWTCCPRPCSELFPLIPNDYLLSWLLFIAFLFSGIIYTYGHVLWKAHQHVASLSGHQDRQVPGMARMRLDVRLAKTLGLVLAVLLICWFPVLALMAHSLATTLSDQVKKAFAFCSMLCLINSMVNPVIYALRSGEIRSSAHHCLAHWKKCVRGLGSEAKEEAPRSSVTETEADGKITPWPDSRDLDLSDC

Ki (read-out: Ki < 0.5 μM) [µM] | Ki (read-out: Ki < 5 μM) [µM] | Compound
< 0.5 | < 5 | O=c1c2sccc2nc(-c2ccc(-c3cccs3)cc2)n1CCN1CCCCC1 [Example 39]
< 0.5 | < 5 | O=c1c2sccc2nc(-c2ccc(-c3cccs3)cc2)n1CCN1CCOCC1 [Example 40]
– | < 5 | CC(C)(C)c1ccc(-c2ccc(-c3nc4ccsc4c(=O)n3CCN3CCCCC3)cc2)cc1 [Example 41]
< 0.5 | < 5 | CC1CCCN(CCn2c(-c3ccc(-c4ccccc4)cc3)nc3ccsc3c2=O)C1 (stereo not drawn) [Example 42]
< 0.5 | < 5 | CC1CCN(CCn2c(-c3ccc(-c4ccccc4)cc3)nc3ccsc3c2=O)CC1 [Example 43]
< 0.5 | < 5 | O=c1c2sc3ccccc3c2nc(-c2ccc(-c3ccccc3)cc2)n1CCN1CCCCC1 [Example 44]
– | < 5 | O=c1c2sc3ccccc3c2nc(-c2ccc(-c3ccccc3)cc2)n1CCN1CCOCC1 [Example 45]
< 0.5 | < 5 | Cc1csc2c(=O)n(CCN3CCCCC3)c(-c3ccc(-c4ccccc4)cc3)nc12 [Example 46]
– | < 5 | O=c1c2ccsc2nc(-c2ccc(-c3ccccc3)cc2)n1CCC1CCOCC1 [Example 47]
– | < 5 | O=c1c2ccsc2nc(-c2ccc(-c3ccccc3)cc2)n1CCN1CCOCC1 [Example 48]
< 0.5 | < 5 | O=c1c2ccsc2nc(-c2ccc(-c3ccccc3)cc2)n1CCN1CCCCC1 [Example 49]
< 0.5 | < 5 | O=c1c2sccc2nc(-c2ccc3cc4ccccc4cc3c2)n1CCN1CCCCC1 [Example 50]
– | < 5 | O=c1c2occc2nc(-c2ccc(-c3ccccc3)cc2)n1CCN1CCCCC1 [Example 51]
– | < 5 | O=c1c2sccc2nc(-c2ccc3[nH]c4ccccc4c3c2)n1CCN1CCCCC1 [Example 52]
< 0.5 | < 5 | O=c1c2sccc2nc(C2CCC(c3ccccc3)CC2)n1CCN1CCCCC1 (stereo not drawn) [Example 53]
< 0.5 | < 5 | Cc1ccccc1-c1ccc(-c2nc3ccsc3c(=O)n2CCN2CCCCC2)cc1 [Example 54]
< 0.5 | < 5 | Cc1sc2c(=O)n(CCN3CCCCC3)c(-c3ccc(-c4ccccc4)cc3)nc2c1C [Example 55]
< 0.5 | < 5 | O=c1c2sccc2nc(-c2ccc(-c3ccc(Cl)c(Cl)c3)cc2)n1CCN1CCCCC1 [Example 56]
– | < 5 | CC(C)(C)c1cc2nc(-c3ccc(-c4ccccc4)cc3)n(CCN3CCCCC3)c(=O)c2s1 [Example 57]
< 0.5 | < 5 | O=c1c2sc(-c3ccccc3)cc2nc(-c2ccc(-c3ccccc3)cc2)n1CCN1CCCCC1 [Example 58]
– | < 5 | O=c1c2sccc2nc(-c2ccc(-c3ccccc3)cc2)n1CCC1C[C@H]2CC[C@@H]1C2 (stereo partly drawn) [Example 59]
< 0.5 | < 5 | Cc1ccc(-c2ccc(-c3nc4ccsc4c(=O)n3CCN3CCCCC3)cc2)cc1C [Example 60]
< 0.5 | < 5 | Cc1cc2nc(-c3ccc(-c4ccccc4)cc3)n(CCN3CCCCC3)c(=O)c2s1 [Example 61]
< 0.5 | < 5 | Cc1cccc(-c2ccc(-c3nc4ccsc4c(=O)n3CCN3CCCCC3)cc2)c1 [Example 62]
< 0.5 | < 5 | O=c1c2sccc2nc(-c2ccc(-c3cccc(F)c3)cc2)n1CCN1CCCCC1 [Example 63]
< 0.5 | < 5 | O=c1c2sccc2nc(-c2ccc(-c3ccccc3Cl)cc2)n1CCN1CCCCC1 [Example 64]
< 0.5 | < 5 | Cc1ccc(-c2ccc(-c3nc4ccsc4c(=O)n3CCN3CCCCC3)cc2)cc1 [Example 65]

Ki (read-out: Ki < 0.5 μM) [µM] | Ki (read-out: Ki < 5 μM) [µM] | Compound
< 0.5 | < 5 | O=c1c2sccc2nc(-c2ccc(-c3ccccc3C(F)(F)F)cc2)n1CCN1CCCCC1 [Example 66]
< 0.5 | < 5 | O=c1c2sccc2nc(-c2ccc(-c3ccccc3)c(F)c2)n1CCN1CCCCC1 [Example 67]
< 0.5 | < 5 | Cc1cc2nc(-c3ccc(-c4ccccc4C)cc3)n(CCN3CCCCC3)c(=O)c2s1 [Example 68]
< 0.5 | < 5 | O=c1c2sccc2nc(-c2ccc(-c3ccccc3F)cc2)n1CCN1CCCCC1 [Example 69]
< 0.5 | < 5 | Cc1cccc(-c2ccc(-c3nc4c(C)c(C)sc4c(=O)n3CCN3CCCCC3)cc2)c1 [Example 70]
< 0.5 | < 5 | O=c1c2sccc2nc(-c2ccc(-c3ccccc3)cc2)n1CCC1=CCCCC1 [Example 71]
– | < 5 | CC1CCCC(C)N1CCn1c(-c2ccc(-c3ccccc3)cc2)nc2ccsc2c1=O (stereo not drawn) [Example 72]
< 0.5 | < 5 | O=c1c2sccc2nc(-c2ccc(-c3ccc(F)cc3)cc2)n1CCN1CCCCC1 [Example 73]
< 0.5 | < 5 | O=c1c2sccc2nc(-c2ccc(-c3cccc(C(F)(F)F)c3)cc2)n1CCN1CCCCC1 [Example 74]
< 0.5 | < 5 | Cc1ccccc1-c1ccc(-c2nc3c(C)c(C)sc3c(=O)n2CCN2CCCCC2)cc1 [Example 75]
< 0.5 | < 5 | COc1ccccc1-c1ccc(-c2nc3ccsc3c(=O)n2CCN2CCCCC2)cc1 [Example 76]
< 0.5 | < 5 | Cc1cc2nc(-c3ccc(-c4ccccc4Cl)cc3)n(CCN3CCCCC3)c(=O)c2s1 [Example 77]
< 0.5 | < 5 | Cc1cc2nc(-c3ccc(-c4ccccc4F)cc3)n(CCN3CCCCC3)c(=O)c2s1 [Example 78]
< 0.5 | < 5 | O=c1c2sccc2nc(-c2ccc(-c3cccc(Cl)c3)cc2)n1CCN1CCCCC1 [Example 79]
< 0.5 | < 5 | Cc1cc(C)cc(-c2ccc(-c3nc4ccsc4c(=O)n3CCN3CCCCC3)cc2)c1 [Example 80]
< 0.5 | < 5 | Cc1cccc(C)c1-c1ccc(-c2nc3ccsc3c(=O)n2CCN2CCCCC2)cc1 [Example 81]
< 0.5 | < 5 | O=c1c2sccc2nc(-c2ccc(-c3c(F)cccc3F)cc2)n1CCN1CCCCC1 [Example 82]
< 0.5 | < 5 | Cc1cc2nc(-c3ccc(-c4ccccc4C(F)(F)F)cc3)n(CCN3CCCCC3)c(=O)c2s1 [Example 83]
< 0.5 | < 5 | Cc1cccc(-c2ccc(-c3nc4cc(C)sc4c(=O)n3CCN3CCCCC3)cc2)c1 [Example 84]
< 0.5 | < 5 | Cc1cc2nc(-c3ccc(-c4cccc(F)c4)cc3)n(CCN3CCCCC3)c(=O)c2s1 [Example 85]
< 0.5 | < 5 | Cc1cc2nc(-c3ccc(-c4cccc(Cl)c4)cc3)n(CCN3CCCCC3)c(=O)c2s1 [Example 86]
< 0.5 | < 5 | Cc1cc2nc(-c3ccc(-c4cccc(C(F)(F)F)c4)cc3)n(CCN3CCCCC3)c(=O)c2s1 [Example 87]
< 0.5 | < 5 | COc1cccc(-c2ccc(-c3nc4cc(C)sc4c(=O)n3CCN3CCCCC3)cc2)c1 [Example 88]
< 0.5 | < 5 | COc1cccc(-c2ccc(-c3nc4ccsc4c(=O)n3CCN3CCCCC3)cc2)c1 [Example 89]
< 0.5 | < 5 | Cc1cc2nc(-c3ccc(-c4c(Cl)cccc4Cl)cc3)n(CCN3CCCCC3)c(=O)c2s1 [Example 90]
< 0.5 | < 5 | Cc1cc2nc(-c3ccc(-c4c(C)cccc4C)cc3)n(CCN3CCCCC3)c(=O)c2s1 [Example 91]
< 0.5 | < 5 | O=c1c2sccc2nc(-c2ccc(-c3cc(Cl)cc(Cl)c3)cc2)n1CCN1CCCCC1 [Example 92]
